“Also recorded” adds a separate entry of the source.
Experiments:
yeast glyoxalase I = molecular target: T1, yeast glyoxalase I (Saccharomyces cerevisiae, UniProt P50107); test: Enzymatic activity of yeast glyoxalase I (formation of S-D-lactoyl-glutathione, 240 nm); type: biochemical; settings: increasing concentrations (0-30 mM in Example 5); FIG. 1-3; listed as EP
T1 construct: purchased Sigma G-4252
T1 sequence (P50107 1-326): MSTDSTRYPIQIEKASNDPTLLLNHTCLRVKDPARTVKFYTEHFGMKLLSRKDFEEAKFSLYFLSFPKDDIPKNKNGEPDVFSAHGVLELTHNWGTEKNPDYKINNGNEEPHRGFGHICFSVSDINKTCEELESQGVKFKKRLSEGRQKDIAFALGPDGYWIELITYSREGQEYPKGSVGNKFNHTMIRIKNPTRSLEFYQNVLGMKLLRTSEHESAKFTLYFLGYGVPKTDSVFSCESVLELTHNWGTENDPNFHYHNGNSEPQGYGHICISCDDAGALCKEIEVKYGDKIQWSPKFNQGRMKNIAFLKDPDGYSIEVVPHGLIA
Experimental: Measuring glyoxalase I (E.C.4.4.1.5, lactoyl-glutathione lyase Sigma, G-4252) was performed according to the instructions of McLellan and Thornalley (1989). The principle is based on measuring the initial rate of formation of S-D-lactoyl-glutathione from methylglyoxal (Sigma, MO252, 40%) and reduced L-glutathione (Aldrich, G-4251, >99%). The formation of the product is observed using the extinction coefficient e=2.86 mM-1 cm-1 at 240 nm. The measurement was performed in 50 mM sodium phosphate buffer, pH 7.0. For that purpose 2 mM methylglyoxal and 2 mM reduced glutathione were incubated for 2 minutes at 30° C. for the formation of the hemithioacetal. Thereafter 20 μl of a 1 to 1000 dilution of the glyoxalase I (Sigma, G-4252) was added to 1 ml of the measuring reagent to start the reaction.
Glyoxalase activity (IU) corresponds to the amount of enzyme forming 1 μmol of S-D-lactoyl-glutathione/min.
Determination of glyoxalase I activity was performed according to the general protocol as described above. The influence of ethyl pyruvate on enzyme activity was investigated by addition of increasing concentrations of EP (Sigma; no. E4, 780-8; lot. S18972-513) to the measuring reagent.
Determination of glyoxalase I activity was performed according to the general protocol as described above. The influence of compounds of the general formula (I), (II), and (III) on the activity of the enzyme was investigated by addition of increasing concentrations of these compounds to the preparation. The IC50-values were calculated from inhibition curves of each compound.
Determination of glyoxalase I activity was performed according to the general protocol as described above. The influence of 2-oxopropanethioic acid S-ethyl ester on the activity of the enzyme was investigated by addition of increasing concentrations of SE to the preparation for the measurement.
Determination of glyoxalase I activity was performed according to the general protocol as described above. The influence of effectors on the enzymatic activity was investigated by addition of increasing concentrations (0-30 mM) of EP (Sigma; no. E4, 780-8; lot. S18972-513) (triangle), BP (prepared according to the instructions of patent JP 11080089; 98%) (circle) and BL (Fluka, 69819; lot. 443090/1 21503090) (squares) to the measuring reagent (FIG. 3).

[1] = molecular target: T2, glyoxalase II of human erythrocytes (Homo sapiens, UniProt Q16775); test: Enzymatic activity of human erythrocyte glyoxalase II (erythrocyte hemolysate); type: biochemical; settings: 0-20 mM; FIG. 6
T2 construct: from tissue; host or cells: human erythrocyte hemolysate
Experimental: The determination of erythrocyte glyoxalase II (E.C.3.1.2.6., hydroxyacyl glutathione hydrolase) was performed according to the instructions of McLellan and Thornalley (1989). The principle is based on determining the initial hydrolysis of S-D-lactoyl-glutathione (L 7140, Sigma-Aldrich Chemie GmbH) in the presence of low amounts of a cell extract. Hydrolysis is observed on the basis of the reduction of the extinction at 240 nm (e=−3.1 mM-1 cm-1). Glyoxalase II activity (IU) correlates to the amount of enzyme hydrolysing 1 μmol of S-D-lactoyl-glutathione/min. The measurement was performed in 100 mM Tris-HCl buffer, pH 7.4. For this purpose 0.4 mM S-D-lactoyl-glutathione was added to 1 ml of the measuring reagent and the reaction was started by addition of suitable amounts (5-100 μl) of an erythrocyte hemolysate. The erythrocyte lysate was prepared according to the instructions of Mannervik et al. (1982).
Determination of glyoxalase II activity was performed according to the general protocol as described above. The influence of ethyl pyruvate on the activity of the enzyme was investigated by addition of increasing concentrations of EP (Sigma, no. E 4, 780-8; lot. S18972-513) (0-20 mM) to the measuring reagent.

In the case of CCOC(=O)C(C)=O [Ethyl pyruvate], the “Influence on the enzymatic activity of yeast glyoxalase I” value (yeast glyoxalase I) is reported as “inhibits the reaction of yeast glyoxalase I in a concentration dependent manner; also recorded: inhibit the activity of glyoxalase I in a concentration dependent manner” and the “Inhibition of the enzymatic activity of glyoxalase II of human erythrocytes” value [1] is reported as “inhibits the reaction of glyoxalase II in a concentration dependent manner”.

— patent US20100204161A1, “Substances and Pharmaceutical Compositions for the Inhibition of Glyoxalases and Their Use Against Bacteria” (BIOMAC PRIVATINSTITUT FUR MEDIZINISHE UND ZAHMEDIZ …, priority 2005, published 2010)
